Columns and labels:
Experiment in all cases: Apoptosis flow cytometry assay of HPLC fractions and synthesized compounds
HL-60 cells = type: cell-based, human; details: HL-60, highest amount tested (50 μM)
MV-4-11 cells = type: cell-based, human
Procedure: Apoptosis flow cytometry assays were performed essentially as described in Example 3. In one series of experiments, cultures MV-4-11 cells were grown to an appropriate density and approximately 20,000 cells/100 μL were seeded into wells of 96-well cell culture microplate. For each fraction, either 0.5 μL/mL of a fraction or 1 μL/mL of a fraction was then added to transferred cells for each cell line and incubated for 24 hours at 37° C. in 5% CO2 incubator. […] Cells were then assessed for apoptosis by an apoptosis flow cytometry assay employing with a fluorochrome-conjugated Annexin V and/or the fluorescent nucleic acid dye 4,6-diamidino-2-phenylindole (DAPI) (APC Annexin V, BD Bioscience, CA) following protocols provided by the manufacture. […] Aliquots were then incubated in the dark for 15 minutes with either 1) an Annexin-V-APC conjugate and DAPI, 1) an Annexin-V-APC conjugate; or 3) DAPI. An unstained aliquot was also set up as a negative control to define the basal level of apoptotic and dead cells. The percentage of cells that have been induced to undergo apoptosis is then determined by subtracting the percentage of apoptotic cells in the unstained aliquot from percentage of apoptotic cells in the stained aliquot. After staining, cells were washed in ice-cold PBS and resuspended in 300 μL of the Annexin V buffered solution, and analysis by flow cytometry using an LSR II flow cytometer (BD Bioscience, CA). […] Mean cell numbers between the OST-01 treated and control group was statistically analyzed by using unpaired, two-tailed Student's t test, with values from at least two independent experiments with triplicate determination. […]
Raw data obtained from these analyses were searched against a natural product databases, a flavonoid database, and other chemspider databases centered to plant natural products for putative identification. IN addition, based on the most abundant precursor ions detected in DI-MS, compounds were manually searched to assign putative identify of the abundant compounds. […]

THP-1 cells = type: cell-based; details: THP-1, highest amount tested (200 μM), relative to ethanol or DMSO negative controls (FIG. 26B)

O=C(O)CCCCCCCCCCCCCCCCCCCCO
increase in DAPI positive cells (HL-60 cells; relative to ethanol negative control (FIG. 28B)): over 4 fold | increase in Annexin V positive cells (HL-60 cells; relative to ethanol or DMSO negative controls (FIG. 27B)): over 1.5 fold | increase in DAPI positive cells (MV-4-11 cells; MV-4-11, up to 30 μM, relative to ethanol negative control, decline at higher concentrations (FIG. 28A)): ≥ 8 fold

O=C(O)/C=C/CCCCCCCCCCCCCCCCCCO [(2E)-21-Hydroxy-2-henicosenoic acid]
increase in Annexin V positive cells (THP-1 cells): ≥ 50% | increase in Annexin V positive cells (MV-4-11 cells; MV-4-11, highest amount tested (50 μM), relative to ethanol negative control (FIG. 27A)): over 2 fold | increase in Annexin V positive cells (MV-4-11 cells; MV-4-11, highest amount tested (200 μM), relative to ethanol or DMSO negative controls (FIG. 26A)): ≥ 55%
